Columns and labels:
[1] = target: T1, progesterone receptor (estrogen-primed rabbit uterus) (Oryctolagus cuniculus, UniProt P06186); test: Relative binding affinity, progesterone receptor; settings: for BINDING AFFINITY Progester: Table 2, estrogen-primed rabbit uterus, progesterone = 100%; for binding affinities compared with the standard, compound 69B: progesterone receptor implied (rabbit or human isoform A not specified)
T1 construct: preparation of cytosols for the progesterone and glucocorticoid receptor assays; from tissue; host or cells: uterus of estradiol-primed immature female New Zealand White rabbits (cytosol)
T1 sequence (P06186 1-930): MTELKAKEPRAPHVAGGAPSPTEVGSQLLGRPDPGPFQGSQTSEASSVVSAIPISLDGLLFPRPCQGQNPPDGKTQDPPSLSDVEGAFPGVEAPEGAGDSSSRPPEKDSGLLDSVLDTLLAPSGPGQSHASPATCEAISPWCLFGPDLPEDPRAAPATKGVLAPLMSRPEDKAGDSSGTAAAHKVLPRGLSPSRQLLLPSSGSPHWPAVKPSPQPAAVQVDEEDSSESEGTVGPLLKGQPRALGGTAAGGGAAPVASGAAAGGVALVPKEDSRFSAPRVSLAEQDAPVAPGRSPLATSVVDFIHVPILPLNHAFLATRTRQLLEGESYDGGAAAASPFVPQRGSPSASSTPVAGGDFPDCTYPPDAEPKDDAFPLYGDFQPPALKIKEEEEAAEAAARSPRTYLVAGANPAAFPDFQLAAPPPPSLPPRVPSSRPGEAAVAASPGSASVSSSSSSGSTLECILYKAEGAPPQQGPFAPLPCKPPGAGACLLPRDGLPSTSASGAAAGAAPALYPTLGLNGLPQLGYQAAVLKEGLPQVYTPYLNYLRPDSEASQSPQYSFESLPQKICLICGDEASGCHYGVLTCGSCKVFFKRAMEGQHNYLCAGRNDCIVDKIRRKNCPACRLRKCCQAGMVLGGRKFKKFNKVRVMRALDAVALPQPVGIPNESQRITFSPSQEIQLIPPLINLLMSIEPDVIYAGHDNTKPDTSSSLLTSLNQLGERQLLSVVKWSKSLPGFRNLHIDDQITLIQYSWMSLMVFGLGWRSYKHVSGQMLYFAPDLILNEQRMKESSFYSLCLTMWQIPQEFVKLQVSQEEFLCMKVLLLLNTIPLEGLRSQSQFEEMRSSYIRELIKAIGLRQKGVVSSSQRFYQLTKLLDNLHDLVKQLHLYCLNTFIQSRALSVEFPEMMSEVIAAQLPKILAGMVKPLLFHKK
Procedure: (§1) Relative Binding Affinities for the Progesterone and Glucocorticoid Receptors
(§2) Uteri and thymus glands were obtained from estradiol-primed immature female rabbits of the New Zealand White strain for preparation of cytosols for the progesterone and glucocorticoid receptor assays, respectively. Tissues were excised and immediately placed in ice cold TEGDM buffer (10 mM Tris, pH 7.4; 1.5 mM EDTA; 10% glycerol vol/vol/; 1 mM dithiothreitol [DTT]; and 20 mM sodium molybdate). The tissues were dissected free of connective tissue and fat, weighed and minced finely. Minced tissues were homogenized in 3 volumes TEGDM/gm with four 10 second bursts of a VirTis Cyclone set at half maximum speed with a 30 second cooling period (in ice) between bursts. Homogenates were centrifuged at 109,663 g at 4° C. for 1 hour to yield the soluble cytosol fiction. Aliquots of cytosol were snap frozen and stored at −75° C.
(§3) All binding assays were carried out at 2-6° C. for 16-18 hours. The following radioactive ligands were used: [1,2-^3H(N)]-progesterone (50.0 Ci/mmole) for the progesterone receptor (PR). […] For the progesterone receptor RBA assays 0.02 ml uterine cytosol or TEDGM buffer, 0.05 ml of various concentrations of test compounds or progesterone, 0.13 ml TEGDM buffer and 0.05 ml [^3H]-progesterone were added to duplicate tubes. For the glucocorticoid receptor RBA assays 0.1 ml thymus cytosol or TEDGM buffer, 0.05 ml of various concentrations of test compounds or dexamethasone, 0.05 ml TEGDM buffer and 0.05 ml [3H]-dexamethasone were added to duplicate tubes. For the estrogen receptor RBA assays 0.05 ml uterine cytosol, 0.1 ml TEGDM buffer, 0.05 ml of various concentrations of test compounds or estradiol and 0.05 ml [^3H]-estradiol were added to duplicate tubes. The concentrations of the test compounds, progesterone, dexamethasone and estradiol ranged from 0.05 to 100 nM and the concentrations of the competitors ranged from 0.5 to 500 nM. Total binding was measured at radioligand concentrations of 3.5 nM and nonspecific binding was measured in the presence of a 200-fold excess of unlabeled progesterone (PR), dexamethasone (GR) or diethylstilbestrol (ER), respectively.
(§4) In all incubations bound and free ligand were separated using dextra-coated charcoal (DCC). A 0.1 ml aliquot of DCC (0.5% charcoal/0.05% Dextran T-70) was added to each tube. The tubes were vortexed and incubated on ice for 10 minutes. Five-tenths ml TEG buffer (without DTT or molybdate) was then added to all tubes to improve supernatant recovery following centrifugation. The charcoal was pelleted by centrifugation at 2,100 g for 15 minutes at 4° C. The supernatants containing the [^3H]-steroid receptor complexes were decanted into vials containing 4 ml Optifluor (Packard Instrument Co.), vortexed, equilibrated in a liquid scintillation counter for 30 minutes and then counted for 2 minutes. This provided the quantity of receptor bound [^3H]-steroid at each competitor concentration.

[2] = tested on: progesterone-induced endometrial proliferation; test: AntiClauberg test; type: in vivo, rabbit; settings: oral; for BIOLOGICAL ACTIVITY antiClauberg: Table 2, CDB-2914 = 100 (assigned); for antiClauberg / oral antiprogestational activity, in words: versus the standard 69B
Procedure: AntiClauberg Test (Clauberg, C., Zentr. Gynakol., 54:2757-2770 (1930)) Immature female rabbits of the New Zealand White breed (approx. 1 kg body weight) were maintained under standard laboratory conditions and received a subcutaneous injection of 5 μg estradiol in 10% ethanol/sesame oil daily for 6 consecutive days. Twenty-four hours after the last dose of estradiol (day 7) animals received progesterone by subcutaneous injection (0.8 mg/day) and the experimental compound in appropriate vehicle (usually 10% ethanol/sesame oil) orally or subcutaneously for five consecutive days. One group of rabbits received progesterone only. Twenty-four hours after the last dose all animals were sacrificed for removal of the uterus which was cleaned of all fat and connective tissue, weighed to the nearest 0.2 mg and placed in 10% neutral buffered formalin for subsequent histological processing. Five micron sections stained with hematoxylin and eosin (H&E) were evaluated microscopically for the degree of endometrial glandular proliferation according to the method of McPhail (McPhail, supra). The percent inhibition of endometrial proliferation at each dose level of the experimental compound was derived by comparison with the progesterone-stimulated animals alone.

[3] = target: T2, glucocorticoid receptor (estrogen-primed rabbit thymus) (Oryctolagus cuniculus, UniProt P59667); test: Relative binding affinity, glucocorticoid receptor; settings: Table 2; estrogen-primed rabbit thymus; dexamethasone = 100%
T2 construct: preparation of cytosols for the progesterone and glucocorticoid receptor assays; from tissue; host or cells: thymus of estradiol-primed immature female New Zealand White rabbits (cytosol)
T2 sequence (P59667 1-772): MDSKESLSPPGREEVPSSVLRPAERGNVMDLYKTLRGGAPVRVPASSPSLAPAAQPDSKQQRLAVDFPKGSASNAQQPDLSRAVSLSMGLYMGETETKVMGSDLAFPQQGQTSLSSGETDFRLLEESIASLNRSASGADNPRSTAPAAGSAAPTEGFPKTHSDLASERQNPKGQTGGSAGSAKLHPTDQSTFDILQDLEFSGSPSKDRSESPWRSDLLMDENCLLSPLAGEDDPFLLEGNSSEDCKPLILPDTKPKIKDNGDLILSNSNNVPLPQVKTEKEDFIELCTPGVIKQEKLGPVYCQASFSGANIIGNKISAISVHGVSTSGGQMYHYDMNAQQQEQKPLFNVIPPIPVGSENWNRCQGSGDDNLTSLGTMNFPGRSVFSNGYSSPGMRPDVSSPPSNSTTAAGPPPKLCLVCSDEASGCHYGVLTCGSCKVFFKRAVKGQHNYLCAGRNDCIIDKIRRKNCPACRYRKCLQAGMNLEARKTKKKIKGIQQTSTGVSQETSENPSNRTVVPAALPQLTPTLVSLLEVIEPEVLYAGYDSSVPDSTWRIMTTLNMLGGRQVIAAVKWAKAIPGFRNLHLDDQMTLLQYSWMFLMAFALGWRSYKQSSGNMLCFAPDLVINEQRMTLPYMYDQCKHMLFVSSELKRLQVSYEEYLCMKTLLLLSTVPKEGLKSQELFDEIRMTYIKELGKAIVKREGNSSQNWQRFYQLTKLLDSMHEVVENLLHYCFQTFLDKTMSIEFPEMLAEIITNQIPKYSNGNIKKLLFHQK
Procedure: as §1, §2, §3, §4

Structure (SMILES)	BINDING AFFINITY Progester [1]	BIOLOGICAL ACTIVITY antiClauberg [2]	binding affinities compared with the standard, compound 69B [1]	BINDING AFFINITY Glucocortic [3]	antiClauberg / oral antiprogestational activity, in words [2]
CC(=O)O[C@]1(C(C)=O)CC[C@H]2[C@@H]3CCC4=CC(=O)CCC4=C3[C@@H](c3ccc(N4CCCC4)cc3)C[C@@]21C [Compound 70, 17α-Acetoxy-11β-[4-(N-pyrrolidino)phenyl]-19-norpregna-4,9-diene-3,20-dione]	79%	˜25			
COCC1(C(C)=O)CCC2C3CCC4=CC(=O)CCC4=C3C(c3ccc(N(C)C)cc3)CC21C (stereo not drawn) [Compound 91, 17α-Methoxymethyl-11β-[4-(N,N-methylamino)phenyl]-19-norpregna-4,9-diene-3,20-dione]	171%	inactive	binding affinities greater than that observed for the standard	59%	
CC(=O)O[C@]1(C(=O)COC(=O)CN(C)C)CC[C@H]2[C@@H]3CCC4=CC(=O)CCC4=C3[C@@H](c3ccc(N(C)C)cc3)C[C@@]21C [Compound 133, 17α-Acetoxy-1-[4-(N,N-dimethylamino)phenyl]-21-(2′-N,N-dimethylamino)acetoxy-19-norpregna-4,9-diene-3,20-dione]	82%	95		13%	
CC(=O)C1(OC=O)CCC2C3CCC4=CC(=O)CCC4=C3C(c3ccc(N(C)C)cc3)CC21C (stereo not drawn) [Compound 69A, 17α-formyloxy-11β-[4-(N,N-dimethylamino)phenyl]-19-norpregna-4,9-diene-3,20-dione]	164%	97	binding affinities greater than that observed for the standard	30%	
COCC(=O)OCC(=O)[C@@]1(OC(C)=O)CC[C@H]2[C@@H]3CCC4=CC(=O)CCC4=C3[C@@H](c3ccc(N(C)C)cc3)C[C@@]21C [Compound 126b]	76%	125		15%	greater activity than the standard
COCC(=O)C1(OC)CCC2C3CCC4=CC(=O)CCC4=C3C(c3ccc(C(C)=O)cc3)CC21C (stereo not drawn) [Compound 113d, 17α,21-Dimethoxy-11β-(4-acetylphenyl)-19-norpregna-4,9-diene-3,20-dione]			binding affinities greater than that observed for the standard		
COCC(=O)C1(OC(C)=O)CCC2C3CCC4=CC(=O)CCC4=C3C(c3ccc(C(C)=O)cc3)CC21C (stereo not drawn) [Compound 123b, 17α-Acetoxy-11β-(4-acetylphenyl)-21-methoxy-19-norpregna-4,9-diene-3,20-dione]	64%	77		45%	
CCC(=O)OCC(=O)[C@@]1(OC(C)=O)CCC2C3CCC4=CC(=O)CCC4=C3C(c3ccc(N(C)C)cc3)C[C@@]21C (stereo partly drawn) [Compound 126a, 17α-Acetoxy-11β-[4-(N,N-dimethylamino)phenyl]-21-propionyloxy-19-norpregna-4,9-diene-3,20-dione]	95%	170		43%	greater activity than the standard
COCC(=O)C1(OC)CCC2C3CCC4=CC(=O)CCC4=C3C(c3ccc(N4CCCCC4)cc3)CC21C (stereo not drawn) [Compound 113c, 17α,21-Dimethoxy-11β-[4-(N-piperidino)phenyl]-19-norpregna-4,9-diene-3,20-dione]	63%	70		45%	
COCC(=O)C1(OC)CCC2C3CCC4=CC(=O)CCC4=C3C(c3ccc(N4CCCC4)cc3)CC21C (centres unmarked) [Compound 113b]	59%			34%	
COCC(=O)C1(O)CCC2C3CCC4=CC(=O)CCC4=C3C(c3ccc(C(C)=O)cc3)CC21C (stereo not drawn) [Compound 122b, 17α-Hydroxy-11β-(4-acetylphenyl)-21-methoxy-19-norpregna-4,9-diene-3,20-dione]			binding affinities greater than that observed for the standard		
CC(=O)OC1(C(C)=O)CCC2C3CCC4=CC(=O)CCC4=C3C(c3ccc(C(C)=O)cc3)CC21C (stereo not drawn) [Compound 73, 17α-Acetoxy-11β-(4-acetylphenyl)-19-norpregna-4,9-diene-3,20-dione]			binding affinities greater than that observed for the standard		

Reference: patent US6900193B1, “Structural modification of 19-norprogesterone I: 17-α-substituted-11-β-substituted-4-aryl and 21-substituted 19-norpregnadienedione as new antiprogestational agents” (The United States of America as represented by the …, priority 1996, dated 2005)
